According to PMC11800159, “Insertion of a Divergent GAF-like Domain Defines a Novel Family of YcgR Homologues That Bind c-di-GMP in Leptospirales” (ACS Omega, 2025):
pKd: −log10 of the molar value.

Biological target: T1, YcgRLIC_11920
T1 construct: gene LIC_11920; full-length protein, N-terminal 6x histidine tag
Experiment: ITC ([…] °C; […] at […] °C), […] c-di-GMP:protein stoichiometry
Format: binding

Work on `Nc1nc2c(ncn2[C@@H]2O[C@@H]3COP(=O)(O)O[C@H]4[C@@H](O)[C@H](n5cnc6c(=O)[nH]c(N)nc65)O[C@@H]4COP(=O)(O)O[C@H]3[C@H]2O)c(=O)[nH]1` [c-di-GMP] yielded a pKd of 7.22.
